Holding throughout (type): cell-based
The subject of one experiment is bacteria. The experiment in a line: Serial dilution and cultivation on Petri films after exposure of yeast cream solution (Method 1), bacteria. As to conditions: exposure +30° C. 30 minutes, incubated +35° C. 48 hours. On the procedure:
(§1) Total viable bacteria and viable yeasts in the samples herein were measured as colony forming units (CFU) per unit of volume (i.e., CFU/ml). The viability of yeasts and their ability to reproduce were measured by using a microscopical method, where specific dye (erythrosine) was used to visualize the amount and form (live, dead, budding) of yeast cells.
(§2) The yeast cream samples (recovered from the wine, through a centrifuge) were diluted with lake water in a ratio of 30%+70%, respectively. The diluted yeast cream samples (later on called yeast cream solutions) were exposed to varying concentrations of performic acid in the equilibrium solution as follows: 49.5 ppm, 74.3 ppm and 99 ppm. In a control sample, no performic acid was added to the yeast cream solution. The effect of performic acid on bacteria was determined by one method (method 1), and on yeast cells by two methods (methods 1 and 2).
(§3) The exposed samples and the control sample were held in +30° C. for 30 minutes, after which the amount of survived microbes was enumerated. The method used was a Serial dilution and cultivation method, where the effect of performic acid on the yeast cream solution was measured via dilution and cultivation of the sample after the exposure, to enumerate the amount of microbial growth. This method entail the dilution of each is sample by a factor large enough to enable clear separation of individual microbial colonies on Petri™ films (from 3M); thus allowing the colonies to be individually counted. Where diluted samples had been applied and inoculated in, the Petri™ films were incubated at +35° C. for 48 hours (bacteria) or at +30° C. for 48 hours (yeasts).

For another experiment, the system named is yeasts. The experiment in a line: Serial dilution and cultivation on Petri films after exposure of yeast cream solution (Method 1), yeasts. As to conditions: exposure +30° C. 30 minutes, incubated +30° C. 48 hours. On the procedure:
as §1, §2, §3

Another experiment relates to yeast cells. The experiment in a line: Neubauer chamber microscopy with erythrosine dye (Method 2), yeast cell count, viability and budding. As to conditions: exposure +30° C. 5 hours; for Reproductive yeast cells %: budding cells over total living cells; for CFU/ml Yeasts 48 h, Neubauer count: total yeast cells; for Yeast cell viability %: viable cells over total cells (live+dead). On the procedure: as §1, §2
The exposed samples and the control sample were held in +30° C. for 5 hours, after which the specific parameters of yeast cells were measured. These parameters included the amount of living yeast cells, dead yeast cells and budding yeast cells (i.e. reproducing yeast cells). The method used was a standard method, commonly adopted by Brazilian Sugar Cane Industry mills. In the method, a Neubauer chamber was filled with approximately 10 μl of the exposed sample, where the erythrosine dye had been mixed in. On the cover slip, a drop of immersion oil was added, and the above mentioned yeast cell parameters were evaluated by using an immersion objective (100×) of the microscope. The cells that presented pink coloration were counted as dead cells, and uncolored cells as living cells. The budding cells were determined on the basis of the shape of the yeast cell.
The total amount of the yeast cells was counted and compared to the result obtained with Method 1. Results are provided in Table 1 (Neubauer count of yeast cells). The cell viability indicates the percentage of viable cells over total cells (live+dead). The cell reproductive % indicates the percentage of budding cells over total living cells.

The mark [1] stands for this setting: 49.5 ppm performic acid in yeast cream solution.
Where [2] appears, read: 74.3 ppm performic acid in yeast cream solution.
The mark [3] stands for this setting: 99 ppm performic acid in yeast cream solution.

Each structure is given as a SMILES string.

For `O=COO` [performic acid], the “CFU/ml Bacteria 48 h, MIC” value with bacteria (setting [1]) was 60 CFU/ml; with bacteria (setting [2]), 70 CFU/ml; in the experiment with bacteria (setting [3]), 30 CFU/ml. Besides, the figures for the “CFU/ml Yeasts 48 h, MIC” value in the experiment with yeasts (setting [1]), in the experiment on yeasts (setting [2]) and in the experiment on yeasts (setting [3]) were 1 000 000 000 CFU/ml, 6 100 000 000 CFU/ml and 1 000 000 000 CFU/ml, respectively. Also, the entries for the “Reproductive yeast cells %” value with yeast cells (setting [1]), in the experiment on yeast cells (setting [2]) and in the experiment on yeast cells (setting [3]) were 6.8%, 8.9% and 4.1%, respectively. For the same compound, the “CFU/ml Yeasts 48 h, Neubauer count” value is given as 380 000 000 CFU/ml in the experiment on yeast cells (setting [1]), 400 000 000 CFU/ml in the experiment on yeast cells (setting [2]) and 640 000 000 CFU/ml with yeast cells (setting [3]). In addition, the “Yeast cell viability %” value was found to be 71.1% in the experiment with yeast cells (setting [1]), 72.1% in the experiment with yeast cells (setting [2]) and 72.3% with yeast cells (setting [3]).

Values taken from patent publication US20140039050A1, “METHOD FOR […] INFECTION IN A FE[…]” (priority 2011, published 2014).
